Experimental data: patent publication US20230310441A1, “TREATMENT FOR SCHIZOPHRENIA” (TAKEDA PHARMACEUTICAL COMPANY, priority 2020, published 2023)
Entries after “also recorded” stand apart in the source; their conditions may differ. Read-outs that look alike come from different tables or passages of the source.

Assay: Phase 1 FIH study: plasma pharmacokinetics in healthy participants
Format: in vivo, human
Conditions: for Tmax / Cmax / AUC(0-t) / AUC / Vd/F: human, plasma; for Vd/F: read-out: Vz/F (mean)
Method: Part 1 was a double-blind, SRD study in healthy adults, utilizing an alternate panel design (cohorts 1, 2) and sequential panel design (cohorts 3-5). Cohorts 1 and 2 were part of a two-period, alternating-panel, double-blind study of Compound (I) administered as an oral suspension (5 mg, 10 mg, 20 mg, or 40 mg) or matched placebo, with a washout period of at least 7 days between treatment periods. Cohorts 3-5 were part of a sequential-panel, double-blind study to evaluate the SRDs of Compound (I) (80, 120, or 160 mg, respectively) or matched placebo. Although planned, all subsequent doses after the dose of 80 mg were determined based on emerging safety, tolerability, and PK data from the preceding cohorts.
In Part 2, participants received either placebo on all dosing days or a loading dose of Compound (I) on Day 1 and a maintenance dose of half the initial dose on Days 8, 15 and 22, administered as an oral suspension. Baseline measurements were obtained on Day −2, and study-specific measurements were obtained following oral dose administrations on Days 1, 8, 15, and 22.
Part 3 was a randomized, open-label, single-dose, parallel design study to evaluate the bioavailability of a Compound (I) tablet formulation relative to a Compound (I) oral suspension formulation and the effect of food on the PK in healthy participants. The immediate release tablet contained mannitol, microcrystalline cellulose, and other commonly used excipients. Participants were randomized 1:1 to receive a single 40 mg dose of Compound (I) as a tablet after either 10 h overnight fast, or 30 min after beginning ingestion of a high-fat, high-calorie breakfast.
Participants were required to remain in the study unit for an additional 48 h post-dose for safety and PK assessments with follow-up visits on Day 4-5 and on Day 17-21. Blood samples were collected over 96 h post-dose to measure the plasma concentrations of Compound (I).
Plasma and urine concentrations of Compound (I) and urine concentrations of cortisol and 6β-hydroxycortisol were measured by high performance liquid chromatography with tandem mass spectrometry. One 4 mL blood sample was collected per scheduled assessment. For participants receiving placebo, blood samples were analyzed only at pre-dose and around the time Cmax occurred (as emerging from the measurements of the first dose group) to ensure that no additional participants could have been on active treatment. Serial urine samples were collected for Part 1 cohorts 1-5 and Part 2 cohorts 1-4. Urine samples for participants receiving placebo were not analyzed. Urine samples were collected for the determination of cortisol and 6β-hydroxycortisol for Part 2 cohorts 1-4 and for all patients in Part 4. Samples for participants randomized to placebo were analyzed for these parameters.
Pharmacokinetic parameters were determined from the concentration-time profiles for all evaluable participants. Actual sampling times were used in all computations. pharmacokinetic parameters were calculated using non-compartmental analysis using Phoenix WinNonLin v8.0 or SAS v 9.4.

[1] = Part 3, single oral 40 mg tablet
[2] = healthy, oral, 40/20 mg, Day 22, N 6
[3] = healthy, oral, 80/40 mg, Day 22, N 6
[4] = healthy, oral, 120/60 mg, Day 22, N 6
[5] = healthy, oral, 160/80 mg, Day 22, N 6
[6] = po, healthy, oral, 40/20 mg, Day 22, N 6
[7] = po, healthy, oral, 80/40 mg, Day 22, N 6
[8] = po, healthy, oral, 120/60 mg, Day 22, N 6
[9] = po, healthy, oral, 160/80 mg, Day 22, N 6

C[C@H](NC(=O)Cn1nnc2ccccc2c1=O)c1ccc(OC(F)(F)F)cc1 [Compound (I), (S)-2-(4-oxobenzo[d][1,2,3]triazin-3(4H)-yl)-N-(1-(4-(trifluoromethoxy)phenyl)ethyl)acetamide]
mean t1/2z (Part 1 SRD, 20-160 mg dose range): 210 to 296 h | mean t1/2z at steady state (Part 2 MRD): 170 to 302 h | dose proportionality of systemic exposure at steady state (Part 2 MRD, Day 22): increased approximately dose proportionally | ratio for AUC96, tablet under fasted and fed conditions [1]: ~0.942 | ratio for Cmax, tablet under fasted and fed conditions [1]: approximately 0.841 | food effect on systemic exposure (Part 3, tablet, fasted vs high-fat, high-calorie meal): no meaningful food effect on systemic exposure; also recorded: minimal food effect | steady-state mean t1/2z (healthy participants (comparison for Part 4)): 271 h | CL/F (mean) [2]: 334.6 mL/h | Cav,ss (mean) [2]: 393.8 ng/mL | Ctrough (mean) [2]: 274.2 ng/mL | t1/2z (mean) [2]: 299.5 h | CL/F (mean) [3]: 281.9 mL/h | Cav,ss (mean) [3]: 889.3 ng/mL | Ctrough (mean) [3]: 621.3 ng/mL | t1/2z (mean) [3]: 301.7 h | CL/F (mean) [4]: 299.1 mL/h | Cav,ss (mean) [4]: 1206.6 ng/mL | Ctrough (mean) [4]: 862.5 ng/mL | t1/2z (mean) [4]: 169.7 h | CL/F (mean) [5]: 284.6 mL/h | Cav,ss (mean) [5]: 1751.1 ng/mL | Ctrough (mean) [5]: 1209.0 ng/mL | t1/2z (mean) [5]: 270.8 h | saturation of plasma PK (highest dose level tested): Saturation of plasma PK was observed at 160 mg | Tmax (oral, 40 mg, Part 3, tablet formulation, fasted and fed states, read-out: median tmax): 2 h | Tmax (oral, 120 mg, Part 1 SRD, 120 mg (secondary peak in some participants), read-out: median tmax): 13 h | Tmax (oral, 160 mg, Part 1 SRD, 160 mg (secondary peak in some participants), read-out: median tmax): 13.5 h | Tmax (oral, Part 1 SRD, dose range 5-80 mg, read-out: median tmax): 0.99 to 3 h | Cmax (oral, Part 2 MRD, 40/20 mg, up to 168 h post-dose, read-out: Mean Cmax (SD)): 550 ng/mL | Cmax (oral, Part 2 MRD, 80/40 mg, up to 168 h post-dose, read-out: Mean Cmax (SD)): 880 ng/mL | Cmax (oral, Part 2 MRD, 120/60 mg, up to 168 h post-dose, read-out: Mean Cmax (SD)): 1260 ng/mL | Cmax (oral, Part 2 MRD, 160/80 mg, up to 168 h post-dose, read-out: Mean Cmax (SD)): 1760 ng/mL | Tmax (oral, Part 2 MRD, read-out: median tmax): 1.75 to 3 h | Tmax (oral, healthy participants (comparison for Part 4), read-out: median tmax): 3 h | Cmax (po, 5 mg, Part 1 SRD, Cohort 1, 5 mg oral suspension, fasted, up to 96 h post-dose, read-out: Mean Cmax (SD)): 140 ng/mL | Cmax (po, 10 mg, Part 1 SRD, Cohort 2, 10 mg oral suspension, fasted, up to 96 h post-dose, read-out: Mean Cmax (SD)): 193 ng/mL | Cmax (po, 80 mg, Part 1 SRD, Cohort 3, 80 mg oral suspension, fasted, up to 168 h post-dose, read-out: Mean Cmax (SD)): 910 ng/mL | Cmax (po, 120 mg, Part 1 SRD, Cohort 4, 120 mg oral suspension, fasted, up to 168 h post-dose, read-out: Mean Cmax (SD)): 1200 ng/mL | Cmax (po, 160 mg, Part 1 SRD, Cohort 5, 160 mg oral suspension, fasted, up to 168 h post-dose, read-out: Mean Cmax (SD)): 1120 ng/mL | AUC(0-t) [6]: 191 µg·h/mL | AUC (po, healthy, oral, 40/20 mg, Day 22, N 6, read-out: AUC24 (mean)): 12 µg·h/mL | AUC (po, healthy, oral, 40/20 mg, Day 22, N 6, read-out: AUC96 (mean)): 42.2 µg·h/mL | AUC (po, healthy, oral, 40/20 mg, Day 22, N 6, read-out: AUCτ (mean)): 66.2 µg·h/mL | Cmax (po, healthy, oral, 40/20 mg, Day 22, N 6, read-out: Cmax (mean)): 698 ng/mL | Vd/F [6]: 112 L | Tmax (po, healthy, oral, 40/20 mg, Day 22, N 6, read-out: tmax (median)): 1.75 h | AUC(0-t) [7]: 421 µg·h/mL | AUC (po, healthy, oral, 80/40 mg, Day 22, N 6, read-out: AUC24 (mean)): 24.4 µg·h/mL | AUC (po, healthy, oral, 80/40 mg, Day 22, N 6, read-out: AUC96 (mean)): 92.7 µg·h/mL | AUC (po, healthy, oral, 80/40 mg, Day 22, N 6, read-out: AUCτ (mean)): 149 µg·h/mL | Cmax (po, healthy, oral, 80/40 mg, Day 22, N 6, read-out: Cmax (mean)): 1250 ng/mL | Vd/F [7]: 123 L | Tmax (po, healthy, oral, 80/40 mg, Day 22, N 6, read-out: tmax (median)): 2 h | AUC(0-t) [8]: 407 µg·h/mL | AUC (po, healthy, oral, 120/60 mg, Day 22, N 6, read-out: AUC24 (mean)): 35.9 µg·h/mL | AUC (po, healthy, oral, 120/60 mg, Day 22, N 6, read-out: AUC96 (mean)): 134 µg·h/mL | AUC (po, healthy, oral, 120/60 mg, Day 22, N 6, read-out: AUCτ (mean)): 203 µg·h/mL | Cmax (po, healthy, oral, 120/60 mg, Day 22, N 6, read-out: Cmax (mean)): 1740 ng/mL | Vd/F [8]: 73 L | Tmax (po, healthy, oral, 120/60 mg, Day 22, N 6, read-out: tmax (median)): 3 h | AUC(0-t) [9]: 841 µg·h/mL | AUC (po, healthy, oral, 160/80 mg, Day 22, N 6, read-out: AUC24 (mean)): 47.4 µg·h/mL | AUC (po, healthy, oral, 160/80 mg, Day 22, N 6, read-out: AUC96 (mean)): 181 µg·h/mL | AUC (po, healthy, oral, 160/80 mg, Day 22, N 6, read-out: AUCτ (mean)): 294 µg·h/mL | Cmax (po, healthy, oral, 160/80 mg, Day 22, N 6, read-out: Cmax (mean)): 2410 ng/mL | Vd/F [9]: 103 L | Tmax (po, healthy, oral, 160/80 mg, Day 22, N 6, read-out: tmax (median)): 3 h | Tmax (po, oral suspension (comparison for Part 3), read-out: median tmax): 1.82 h | Tmax (po, single and repeated oral administration, healthy and schizophrenia patients, read-out: tmax): 0.99 to 3 h | absorption (single and repeated oral administration, healthy volunteers and patients with stable schizophrenia): rapidly absorbed | dose proportionality of Cmax and AUC (single oral doses 5-160 mg, healthy): increased less than dose proportionally
